# Test results: doi:10.1101/2024.10.18.618978v3 (biorxiv, 2026)
# Assays:
# SpeG [1] = molecular target: T1, SpeG (Staphylococcus aureus, UniProt A0A0H2XGJ0); experiment: thermal shift assay; type: binding; conditions: 1.6 μM SpeG, 3-fold dilution series of compound; Tm decreased
# T1 sequence (A0A0H2XGJ0 1-165): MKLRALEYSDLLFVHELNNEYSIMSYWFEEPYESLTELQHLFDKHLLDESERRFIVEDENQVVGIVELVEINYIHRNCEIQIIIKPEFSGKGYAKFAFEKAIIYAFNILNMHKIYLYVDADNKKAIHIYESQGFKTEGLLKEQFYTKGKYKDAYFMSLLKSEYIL
# SAT1 = SAT1 (Homo sapiens, UniProt P21673); experiment: colorimetric DTNB SSAT assay; type: biochemical
# Chain of SAT1 (P21673 whole entry): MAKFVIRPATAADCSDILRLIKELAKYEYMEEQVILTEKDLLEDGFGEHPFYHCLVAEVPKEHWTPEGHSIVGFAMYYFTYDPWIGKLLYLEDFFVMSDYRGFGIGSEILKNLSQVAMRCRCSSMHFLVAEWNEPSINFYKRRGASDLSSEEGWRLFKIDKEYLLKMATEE
# SpeG [2] = molecular target: T1, SpeG; experiment: colorimetric DTNB SSAT assay; type: biochemical
Tm (SpeG [1]),Ki (SAT1),Ki (SpeG [2]),Structure (SMILES)
OES2-0017 titration decreased SpeG Tm,,,CCCCCCCCCCCCNCCCN [OES2-0017]
,228 ± 49.7 µM,,CCCCCCCCNCCCN [OES2-0045]
,160 ± 50.4 µM,160 ± 38.3 µM,CCCCCCCCCCCCN [OES2-0052]
,743 ± 250 µM,853 ± 238 µM,CCCCCCCCCCN [OES2-0077]
,,1270 ± 263 µM,CCCCCCCCNCCN [OES2-0085]
,,1200 ± 425 µM,CCCCCCCCCCNCCN [OES2-0086]
